Drawing on patent US10376504B2, “Substituted quinolinones as PDE9 inhibitors” (Merck Sharp & Dohme Corp., priority 2015, dated 2019), this text covers Ki for six compounds.

By Ki is commonly meant the dissociation constant of the complex between target and ligand, obtained from inhibition or displacement.

Structures are written as SMILES.

human PDE9 (PDE9A2), sequence (O76083 other isoform, or with tags, fused parts or gaps): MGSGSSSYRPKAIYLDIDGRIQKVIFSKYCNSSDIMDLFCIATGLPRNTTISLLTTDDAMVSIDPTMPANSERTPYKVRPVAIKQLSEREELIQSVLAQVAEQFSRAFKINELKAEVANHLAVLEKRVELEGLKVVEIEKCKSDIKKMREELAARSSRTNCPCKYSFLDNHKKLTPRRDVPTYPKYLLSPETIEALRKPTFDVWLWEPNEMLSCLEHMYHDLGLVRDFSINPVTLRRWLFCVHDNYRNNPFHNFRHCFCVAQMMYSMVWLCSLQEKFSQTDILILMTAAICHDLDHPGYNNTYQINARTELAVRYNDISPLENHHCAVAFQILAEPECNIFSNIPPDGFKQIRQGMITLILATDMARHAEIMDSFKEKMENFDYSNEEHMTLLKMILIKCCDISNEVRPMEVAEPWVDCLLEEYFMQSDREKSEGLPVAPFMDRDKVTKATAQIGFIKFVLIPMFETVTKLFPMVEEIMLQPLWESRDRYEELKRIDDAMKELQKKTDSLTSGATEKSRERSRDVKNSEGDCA

In this test the target is human PDE9 (PDE9A2) (Homo sapiens (Human), UniProt O76083). In words: PDE9 IMAP fluorescence polarization (FP) inhibition assay. In kind it is biochemical. The settings on record: FAM-cGMP substrate 50 nM, room temperature. Here is the method:
The activity of the compounds in accordance with the present invention as PDE9 inhibitors may be readily determined without undue experimentation using a fluorescence polarization (FP) methodology that is well known in the art (Huang, W., et al., J. Biomol Screen, 2002, 7: 215).
In a typical experiment the PDE9 inhibitory activity of the compounds of the present invention was determined in accordance with the following experimental method. Rhesus PDE9A2 was amplified from rhesus whole brain cDNA (Biochain Institute) essentially as described in Hutson, et al. Neuropharmacology (2011) 61(4):665-676. HEK 293 or CHO cells over-expressing rhesus or rat PDE9A2 (created by DiscoverX from mRNA Genbank accession # NM_138543) respectively were lysed in 20 mM HEPES, 1 mM EDTA buffer with protease inhibitors (Roche, Indianapolis, Ind.). After brief homogenization, cells were pelleted via centrifugation at 75,000×g for 20 min at 4° C. The pellets were re-suspended, centrifuged and re-pelleted again in the same manner. The membrane fraction was collected in 20 mM HEPES, 1 mM MgCl2 with protease inhibitors. Human PDE9 (PDE9A2, GenBank Accession No. NM_001001567), full length with N-terminal GST tag, was purchased from BPS Bioscience. The fluorescence polarization assay for cyclic nucleotide phosphodiesterases was performed using an IMAP® FP kit supplied by Molecular Devices, Sunnyvale, Calif. (product # R8139). IMAP® technology has been applied previously to phosphodiesterase assays (Huang, W., et al., J. Biomol Screen, 2002, 7: 215). Assays were performed at room temperature in 384-well microtiter plates with an incubation volume of 20.2 μL. Solutions of test compounds were prepared in DMSO and serially diluted with DMSO to yield 8 μL of each of 10 solutions differing by 3-fold in concentration, at 32 serial dilutions per plate. 100% inhibition is determined using a known PDE9 inhibitor, such as 1-(2-chlorophenyl)-6-[(2R)-3,3,3-trifluoro-2-methylpropyl]-1,5-dihydro-4H-pyrazolo[3,4-d]pyrimidine-4-one (BAY 73-6691) (Wunder et al, Mol. Pharmacol., 2005, 68(6): 1775-81), (6-[(3S,4S)-4-methyl-1-(pyrimidin-2-ylmethyl)pyrrolidin-3-yl]-1-(tetrahydro-2H-pyran-4-yl)-1,5-dihydro-4H-pyrazolo[3,4-d]pyrimidin-4-one (PF-04447943) (Wager et al., ACS Chemical Neuroscience, 2010, 1:435-449). 0% of inhibition is determined by using DMSO (1% final concentrations). A Labcyte Echo 555 (Labcyte, Sunnyvale, Calif.) is used to dispense 200 nL from each well of the titration plate to the 384 well assay plate. Rhesus membrane preps were diluted to 4 ng/ml, rat membrane preps diluted to 13 ng/ml, and human PDE9A2 diluted to 1 ng/ml. FAM-labeled cGMP substrate (Molecular Devices, Sunnyvale, Calif.) was at a concentration of 100 nM (Km of PDE9 for cGMP is 70-170 nM) in the assay buffer (10 mM Tris HCl, pH 7.2, 10 mM MgCl2, 0.05% NaN3 0.01% Tween-20, and 1 mM DTT). PDE9 enzyme mix and compounds were mixed and incubated at room temperature for 30 min. Following which, FAMcGMP substrate was added, shaken and incubated for an additional 60 min at room temperature. The final concentrations of rhesus and rat membrane preparations were 2 ng/ml and 6.5 ng/ml, respectively, while the human PDE9 was used at a final concentration of 0.5 ng/ml. The final concentration of FAM-cGMP was 50 nM. After the incubation period, the enzymatic reaction was stopped by addition of binding solution (IMAP-FP, Molecular Devices, comprised of 80% Solution A, 20% Solution B and a 1:600 dilution of binding reagent) to each well. The plates were shaken then incubated at room temperature for 1 h prior to determining the fluorescence polarization (mP) using a Perkin Elmer EnVision™ plate reader (Waltham, Mass.).
Fluorescence polarization (mP) was calculated from the parallel (S) and perpendicular (P) fluorescence of each sample well and the analogous values for the median control well, containing only substrate (So and Po), using the following equation: Polarization(mP)=1000*(S/So−P/Po)/(S/So+P/Po). […]
Background: In fluorescence polarisation assays a small probe gives low polarisation when free and higher when bound to something large.
Consider `N#Cc1c(N2CC[C@@H](n3cccn3)C2)c2ccccc2[nH]c1=O` [Example 1-7, (R)-4-(3-[1H-pyrazol-1-yl]pyrrolidin-1-yl)-2-oxo-1,2-dihydroquinoline-3-carbonitrile], for which the Ki turned out to be 7.5 nM.
Compound `N#Cc1c(N2CCCCCC2)c2ccccc2[nH]c1=O` [Example 1-8, 4-(azepan-1-yl)-2-oxo-1,2-dihydroquinoline-3-carbonitrile] registered a Ki of 18 nM. This Ki lies about 2.4-fold higher than the previous one.
Compound `N#Cc1c(N2CCC2)c2ccccc2[nH]c1=O` [Example 1-9, 4-(azetidin-1-yl)-2-oxo-1,2-dihydroquinoline-3-carbonitrile] displayed an inhibitory constant (Ki) of 5550 nM.
For `CCN(CC)c1c(C#N)c(=O)[nH]c2ccccc12` [Example 1-10, 4-(diethylamino)-2-oxo-1,2-dihydroquinoline-3-carbonitrile], the inhibition constant Ki was 88.9 nM. This Ki lies about 62-fold lower than the previous one.
On to `CC1(C)CCN(c2c(C#N)c(=O)[nH]c3ccccc23)CC1` [Example 1-11, 4-(4,4-dimethylpiperidin-1-yl)-2-oxo-1,2-dihydroquinoline-3-carbonitrile], for which the affinity corresponds to a Ki of 26.3 nM. This Ki lies about 3.4-fold lower than the previous one.
In turn, `N#Cc1c(NCCC2COC2)c2ccccc2[nH]c1=O` [Example 1-12, 4-((2-(oxetan-3-yl)ethyl)amino)-2-oxo-1,2-dihydroquinoline-3-carbonitrile] gave an inhibition constant Ki of 71.1 nM.
